Test results from patent US5665760A, “Lyophilized thioxanthenone antitumor agents” (priority 1995, dated 1997).

Assays:
Format in all cases: in vivo
[1] = system: P388/adriamycin resistant leukemia; assay: P388/adriamycin resistant leukemia, cells implanted i.v.
[2] = system: Mammary Adenocarcinoma 16/C/RP; assay: antitumor activity in mice against Mammary Adenocarcinoma 16/C/RP
Method: (§1) Representative examples of the invention were tested for antitumor activity in mice according to the following procedure:
(§2) The animals were pooled, implanted subcutaneously with 30 to 60 mg tumor fragments by 12-gauge trocar, and again pooled before unselective distribution to the various treatment and control groups. For early-stage treatment, chemotherapy was started within 1 to 5 days after tumor implantation while the number of cells was relatively small (10^7 to 10^8 cells). For advanced-stage treatment, chemotherapy was delayed until the tumor became relatively large (200 to 300 mg in size). A 300-mg tumor contains approximately 3×10^8 total cells. Tumors within a given advanced-stage trial were within a 2.5-fold size range for 90% of the animals. Tumors were measured with a caliper weekly (or twice weekly for the more rapidly growing tumors). Mice were sacrificed when their tumors reached 1500 mg (i.e., before they can cause the animal discomfort). Tumor weights were estimated from two-dimensional measurements.
The treatment and control groups were measured when the control group tumors reached approximately 700 to 1200 mg in size (Median of Group). The median tumor weight of each group was determined (including zeros). The T/C value (weight of treated tumors over the weight of control tumors) in percent is an indication of antitumor effectiveness: A T/C equal to or less than 42% is considered significant antitumor activity by the Drug Evaluation Branch of the Division of Cancer Treatment (NCl). A T/C value <10% is considered to indicate highly significant antitumor activity. A body weight loss nadir (mean of group) of greater than 20% or greater than 20% drug-deaths is considered to indicate an excessively toxic dosage.

[3] = system: pancreatic ductal adenocarcinoma #03; assay: antitumor activity in mice against pancreatic ductal adenocarcinoma #03 (Panc 03)
Method: as §1
as §2, with “Tumors within a given advanced-stage trial were within a 2.5-fold size range for 90% of the animals.” left out
(§3) The treatment and control groups were measured when the control group tumors reached approximately 700 to 1200 mg in size (Median of Group). The median tumor weight of each group was determined (including zeros). […] A T/C value <10% is considered to indicate highly significant antitumor activity.
(§4) The results are shown in Table I for pancreatic ductal adenocarcinoma #03 and in Table 2 for colon adenocarcinoma #38.

colon adenocarcinoma #38 = assay: antitumor activity in mice against colon adenocarcinoma #38; details: for Drug Deaths / Weight Loss: Table 2
Method: as §1
as §2, with “Tumors within a given advanced-stage trial were within a 2.5-fold size range for 90% of the animals.” left out
as §3, §4

[4] = 10^6 cells, 112 mg/kg total, i.v.→p.o. days 1, 4
[5] = 10^6 cells, 248 mg/kg total, i.v.→p.o. days 1, 4
[6] = Mus musculus, ip, read-out: T/C
[7] = i.p., total dose mg/kg by Example: 10:340, 11:518
[8] = p.o., total dose mg/kg by Example: 10:460, 11:885
[9] = p.o., total dose mg/kg by Example: 10:740, 11:1709
[10] = 10^5 cells, 200 mg/kg total, i.v. 3 hour infusion days 1, 4
[11] = 10^5 cells, 320 mg/kg total, i.v. 3 hour infusion days 1, 4
[12] = 10^5 cells, 520 mg/kg total, i.v. 3 hour infusion days 1, 4
[13] = Table 1, average body weight 25 g, total doses as in E1
[14] = 10^5 cells, 150 mg/kg total, i.v. 3 hour infusion days 1, 4
[15] = 10^5 cells, 300 mg/kg total, i.v. 3 hour infusion days 1, 4
[16] = 10^5 cells, 450 mg/kg total, i.v. 3 hour infusion days 1, 4
[17] = total dose 327 mg/kg, i.v. days 3-6 and p.o. days 7-10
[18] = total dose 529 mg/kg, i.v. days 3-6 and p.o. days 7-10
[19] = total dose 852 mg/kg, i.v. days 3-6 and p.o. days 7-10
[20] = 10^6 cells, 280 mg/kg total, i.v. 3 hour infusion day 1
[21] = 10^6 cells, 450 mg/kg total, i.v. 3 hour infusion day 1
[22] = 400 mg/kg total, i.v. infusion days 1, 4
[23] = 600 mg/kg total, i.v. infusion days 1, 4
[24] = 900 mg/kg total, i.v. infusion days 1, 4
[25] = 10^6 cells, 76 mg/kg total, i.v. […] infusion day 1
[26] = 10^6 cells, 123 mg/kg total, i.v. […] infusion day 1
[27] = 10^6 cells, 198 mg/kg total, i.v. […] infusion day 1
[28] = 10^6 cells, 320 mg/kg total, i.v. […] infusion day 1

SMILES: CCN(CC)CCNc1ccc(CNS(C)(=O)=O)c2sc3ccc(OC)cc3c(=O)c12 [31(c)]
- % ILS (percentage increase in lifespan) [1, 4]: 0%
- Log10 Tumor cell kill [1, 4]: 0
- Wt. Loss at Nadir [1, 4]: -2.7 g/mouse
- % ILS (percentage increase in lifespan) [1, 5]: 0%
- Log10 Tumor cell kill [1, 5]: 0
- Wt. Loss at Nadir [1, 5]: -3.0 g/mouse
- Drug Deaths ([1]; mouse, in vivo, 112 mg/kg): 0/6
- Drug Deaths ([1]; mouse, in vivo, 248 mg/kg): 1/6
- T/C Value ([2]; 109.6 mg/kg total, i.v. 2X/day, days 3-6): 6%
- T/C Value ([2]; 156.8 mg/kg total, i.v. 2X/day, days 3-6): 5%
- T/C Value ([2]; 224 mg/kg total, i.v. 2X/day, days 3-6): 0%
- Drug Deaths ([2]; mouse, in vivo): 0
- T/C [3]: 0%
- Drug Deaths ([3]; Table 1, total doses as in E1): 0
- Weight Loss ([3]; mouse, in vivo): 5.6 g

SMILES: CCN(CC)CCNc1ccc(CNC(C)=O)c2sc3ccccc3c(=O)c12 [Example 10, N-[[1-[[2-(Diethylamino)ethyl]amino]-9-oxo-thioxanthen-4-yl]methyl]acetamide]
- response vs control in vivo at 160 mg/kg (colon adenocarcinoma #38; [6]): 22%
- response vs control in vivo at 200 mg/kg (colon adenocarcinoma #38; [6]): 24%
- response vs control in vivo at 865 mg/kg (colon adenocarcinoma #38; [6]): 23%
- Drug Deaths (colon adenocarcinoma #38; [7]): 0
- Weight Loss (colon adenocarcinoma #38; [7]): 4.0 g
- Drug Deaths (colon adenocarcinoma #38; [8]): 0
- Weight Loss (colon adenocarcinoma #38; [8]): 1.2 g
- Drug Deaths (colon adenocarcinoma #38; [9]): 2/5
- Weight Loss (colon adenocarcinoma #38; [9]): 4.0 g
- Drug Deaths (colon adenocarcinoma #38; total dose 160 mg/kg i.p.): 0
- Weight Loss (colon adenocarcinoma #38; total dose 160 mg/kg i.p.): 0.6 g
- Drug Deaths (colon adenocarcinoma #38; total dose 200 mg/kg i.p.): 0
- Weight Loss (colon adenocarcinoma #38; total dose 200 mg/kg i.p.): 2.3 g
- Drug Deaths (colon adenocarcinoma #38; total dose 865 mg/kg i.p.): 0
- Weight Loss (colon adenocarcinoma #38; total dose 865 mg/kg i.p.): 2.0 g
- Drug Deaths [1, 10]: 0/7
- Wt. Loss at Nadir [1, 10]: -1.5 g/mouse
- Drug Deaths [1, 11]: 0/5
- Wt. Loss at Nadir [1, 11]: -1.75 g/mouse
- Drug Deaths [1, 12]: 3/7
- Wt. Loss at Nadir [1, 12]: -3.75 g/mouse
- Tumor Cell ([1]; iv, 200 mg/kg): 0/7
- % ILS (percentage increase in lifespan) ([1]; iv, 200 mg/kg, 3 h): 8%
- Log10 Tumor cell kill ([1]; iv, 200 mg/kg, 3 h): 0.5
- Tumor Cell ([1]; iv, 320 mg/kg): 0/5
- % ILS (percentage increase in lifespan) ([1]; iv, 320 mg/kg, 3 h): 23%
- Log10 Tumor cell kill ([1]; iv, 320 mg/kg, 3 h): 1.5
- % ILS (percentage increase in lifespan) ([1]; iv, 520 mg/kg, 3 h): 54%
- Log10 Tumor cell kill ([1]; iv, 520 mg/kg, 3 h): 3.5
- Weight Loss [3, 13]: 2.4 g
- Drug Deaths ([3]; Table 1, total doses as in E1): 0

SMILES: CCN(C=O)Cc1ccc(NCCN(CC)CC)c2c(=O)c3ccccc3sc12 [Example 13, N-[[1-[[2-(Diethylamino)ethyl]amino]-9-oxothioxanthen-4-yl]methyl]-N-ethylformamide]
- Drug Deaths [1, 14]: 0/8
- Wt. Loss at Nadir [1, 14]: -1.75 g/mouse
- Drug Deaths [1, 15]: 0/7
- Wt. Loss at Nadir [1, 15]: -1.75 g/mouse
- Drug Deaths [1, 16]: 2/7
- Wt. Loss at Nadir [1, 16]: -3.0 g/mouse
- % ILS (percentage increase in lifespan) ([1]; iv, 150 mg/kg, 3 h): 8%
- Log10 Tumor cell kill ([1]; iv, 150 mg/kg, 3 h): 0.5
- Tumor Cell ([1]; iv, 300 mg/kg): 0/7
- % ILS (percentage increase in lifespan) ([1]; iv, 300 mg/kg, 3 h): 15%
- Log10 Tumor cell kill ([1]; iv, 300 mg/kg, 3 h): 1.0
- Tumor Cell ([1]; iv, 450 mg/kg): 0/7
- % ILS (percentage increase in lifespan) ([1]; iv, 450 mg/kg, 3 h): 38%
- Log10 Tumor cell kill ([1]; iv, 450 mg/kg, 3 h): 2.5
- T/C [3]: 0%
- Weight Loss [3, 13]: 2.4 g
- Drug Deaths ([3]; Table 1, total doses as in E1): 0

SMILES: CCN(CC)CCNc1ccc(CN(CC)S(C)(=O)=O)c2sc3ccccc3c(=O)c12 [Example 25, N-[[1-[[2-(Diethylamino)ethyl]amino]-9-oxothioxanthen-4-yl]methyl]-N-ethyl-methanesulfonamide]
- response vs control in vivo at 327 mg/kg (colon adenocarcinoma #38; Mus musculus, read-out: T/C): 0%
- response vs control in vivo at 529 mg/kg (colon adenocarcinoma #38; Mus musculus, read-out: T/C): 0%
- response vs control in vivo at 852 mg/kg (colon adenocarcinoma #38; Mus musculus, read-out: T/C): 0%
- Drug Deaths (colon adenocarcinoma #38; [17]): 0
- Weight Loss (colon adenocarcinoma #38; [17]): 0.8 g
- Drug Deaths (colon adenocarcinoma #38; [18]): 0
- Weight Loss (colon adenocarcinoma #38; [18]): 0.6 g
- Drug Deaths (colon adenocarcinoma #38; [19]): 4/5
- Weight Loss (colon adenocarcinoma #38; [19]): 4.8 g
- T/C [3]: 0%
- Weight Loss [3, 13]: 4.6 g
- Drug Deaths ([3]; Table 1, total doses as in E1): 0

SMILES: CCN(CC)CCNc1ccc(CNC)c2sc3ccc(OC)cc3c(=O)c12 [Example 30(h), 1-[[2-(Diethylamino)ethyl]amino]-4-[(methylamino)methyl]-7-methoxy-thioxanthen-9-one]
- Drug Deaths [1, 20]: 0/7
- Wt. Loss at Nadir [1, 20]: -1.7 g/mouse
- Drug Deaths [1, 21]: 0/7
- Wt. Loss at Nadir [1, 21]: -2.3 g/mouse
- % ILS (percentage increase in lifespan) ([1]; iv, 280 mg/kg): 69%
- Log10 Tumor cell kill ([1]; iv, 280 mg/kg): 6.0
- Tumor Cell ([1]; iv, 280 mg/kg): 2/7
- % ILS (percentage increase in lifespan) ([1]; iv, 450 mg/kg): 62%
- Log10 Tumor cell kill ([1]; iv, 450 mg/kg): 5.3
- Tumor Cell ([1]; iv, 450 mg/kg): 0/7
- Drug Deaths [2, 22]: 0/5
- T/C Value [2, 22]: 46%
- Wt. Loss at Nadir [2, 22]: -1.0 g/mouse
- Drug Deaths [2, 23]: 0/5
- T/C Value [2, 23]: 23%
- Wt. Loss at Nadir [2, 23]: -0.7 g/mouse
- Drug Deaths [2, 24]: 1/6
- T/C Value [2, 24]: 29%
- Wt. Loss at Nadir [2, 24]: 0 g/mouse
- T/C [3]: 0%
- Weight Loss [3, 13]: 1.4 g
- Drug Deaths ([3]; Table 1, total doses as in E1): 0

SMILES: CCN(CC)CCNc1ccc(CNC(=O)OC)c2sc3ccccc3c(=O)c12 [Example 34, Methyl N-[[1-[[2-(diethylamino)ethyl]amino]-9-oxothioxanthen-4-yl]methyl]carbamate]
- Drug Deaths [1, 25]: 0/5
- Wt. Loss at Nadir [1, 25]: -0.4 g/mouse
- Drug Deaths [1, 26]: 0/5
- Wt. Loss at Nadir [1, 26]: -1.2 g/mouse
- Drug Deaths [1, 27]: 0/5
- Wt. Loss at Nadir [1, 27]: -1.2 g/mouse
- % ILS (percentage increase in lifespan) [1, 28]: toxic
- Drug Deaths [1, 28]: 5/5
- Log10 Tumor cell kill [1, 28]: LD100
- Wt. Loss at Nadir [1, 28]: -3.6 g/mouse
- % ILS (percentage increase in lifespan) ([1]; iv, 76 mg/kg): 0%
- Log10 Tumor cell kill ([1]; iv, 76 mg/kg): 0
- Tumor Cell ([1]; iv, 76 mg/kg): 0/5
- % ILS (percentage increase in lifespan) ([1]; iv, 123 mg/kg): 8.3%
- Log10 Tumor cell kill ([1]; iv, 123 mg/kg): 0.7
- Tumor Cell ([1]; iv, 123 mg/kg): 0/5
- % ILS (percentage increase in lifespan) ([1]; iv, 198 mg/kg): 41.7%
- Log10 Tumor cell kill ([1]; iv, 198 mg/kg): 3.3
- Tumor Cell ([1]; iv, 198 mg/kg): 0/5
- Tumor Cell ([1]; iv, 320 mg/kg): 0/5
- Weight Loss [3, 13]: 3.6 g
- Drug Deaths ([3]; Table 1, total doses as in E1): 0
